We go through five compounds from patent publication EP4711368A1 (priority 2023, dated 2024).

Data set [1] relates to SD rats. Description: animal or person. The settings on record: iv; for Minimal effective analgesic dose / Minimal effective anesthetic dose / Onset time / Righting feflex duration / Sedation Duration: rat, in vivo; for minimal effective dose: Rattus norvegicus. The format is in vivo.
The test system of data set [2] is SD rats. Description: TC-ED50 after single intravenous injection (Table 2; method not described). The data set is classed as in vivo.
Data set [3] has as its system SD rats. As to conditions: rat, in vivo; for MLD: iv.
The mark [4] stands for this setting: read-out: Minimal effective anesthetic dose.

Where two headings read alike, the source gives them in different places. Bounds are passed on as bounds.
For Onset time in this document: test concentration or dose not given here.
For Righting feflex duration in this document: test concentration or dose not given here.
For Sedation Duration in this document: test concentration or dose not given here.

For `CC(C)OC(=O)OCC1N=C(c2ccccn2)c2cc(Br)ccc2N(C)C1=O` (stereo not shown) [Compound 55], in data set [1], the “Minimal effective analgesic dose” value is given as 20 mg/kg, the “Minimal effective anesthetic dose” value turned out to be 1.0 mg/kg, the Onset time was in the range of 0.2 to 0.7 min and the Righting feflex duration lay in the range of 2.4 to 25.4 min. Besides, the “Sedation Duration” value in data set [1] fell in the range of 11.3 to 141.0 min. This compound also gave a TC-ED50 in data set [2] of 15.4 mg/kg. Moreover, in data set [3], the TI is listed as >20. 0 and the MLD was above 20 mg/kg.
`Cc1cnc2n1-c1ccc(Br)cc1C(c1ccccn1)=NC2COC(=O)C(C)C` (stereo not shown) [Compound 97]: in data set [1], the “Minimal effective analgesic dose” value was determined as 10 mg/kg, the “Minimal effective anesthetic dose” value is on record as 2.0 mg/kg, the Onset time was in the range of 0.4 to 0.7 min and the Righting feflex duration fell in the range of 0.7 to 129.9 min. Moreover, the “Sedation Duration” value in data set [1] was 16.9 to 187.5 min. The same compound came in with a TC-ED50 in data set [2] of 9.9 mg/kg. In data set [3], the TI came out at 15.0 and the MLD is 30 mg/kg.
As to `CCC(=O)OCC1N=C(c2ccccn2)c2cc(Br)ccc2-n2c(C)cnc21` (stereo not shown) [Compound 98], in data set [1], the “Minimal effective analgesic dose” value amounted to 20 mg/kg, the “Minimal effective anesthetic dose” value was found to be 5.0 mg/kg, the Onset time lay in the range of 0.5 to 0.6 min and the Righting feflex duration lay in the range of 11.6 to 17.4 min. The “Sedation Duration” value in data set [1] is 72.5 to 208.7 min. The TC-ED50 in data set [2] is given as 22.0 mg/kg. In data set [3], this compound registered a TI of 6.0 and an MLD of 30 mg/kg.
As to `CCOC(=O)CN1N=C(c2ccccn2)C=CN(C)C1=O` [Compound 347], the minimal effective dose in data set [1] (read-out: Minimal effective analgesic dose) is 20 mg/kg. Moreover, the minimal effective dose in data set [1] (setting [4]) came to 20 mg/kg. Further, in data set [1], the Onset time fell in the range of 0.13 to 0.28 min, the Righting feflex duration fell in the range of 2.25 to 4.47 min and the “Sedation Duration” value lay in the range of 15.35 to 54.20 min. For the same compound, the TI in data set [3] (SD) is given as 2. The MLD in data set [3] stood at 40 mg/kg.
Consider `CCOC(=O)CN1N=C(c2ccccn2)C(Cl)=CN(C)C1=O` [Compound 348], for which, in data set [1] (setting [4]), the minimal effective dose was found to be 20 mg/kg. In data set [1], the Onset time was determined as 0.75 min, the Righting feflex duration is on record as 2.03 min and the “Sedation Duration” value was 116.72 min. In data set [3] (SD), this compound displayed a TI above 1 and an MLD above 20 mg/kg.

One may read the minimal effective dose as the lowest level tested that produced the effect sought.
